Assay results as given in patent publication US8614201B2 (Janssen Pharmaceutica NV, priority 2009, dated 2013).

Target: Human TRPA1 (Homo sapiens, UniProt O75762)
Experiment: Alternative TRPA1 Ca2+ fluorometry assay (hTRPA1/TREx-HEK293 cells, Fluo-4, FDSS 6000)
Format: cell-based
Set-up: expressed in transfected cells
Settings: Fluo-4-AM, agonist 6,11-dihydro-5H-dibenzo[b,e]azepine-10-carboxylic acid methyl ester 25 nM, procedure used for Examples 184, 190 to 192, 194 to 316
Experimental: In alternative embodiments, the assay was performed using the following procedure for Examples 184, 190 to 192, and 194 to 316:
The human TRPA1 gene was cloned into the pT-Rex-Dest30 inducible vector and stably transfected in T-Rex™-293 cells (Invitrogen, Merelbeke, Belgium). This tetracycline inducible hTRPA1 expression system was used in order to prevent CA^2+ overload in the cultured cells due to sustained TRPA1 expression. hTRPA1/TREx-HEK293 cells (referred to as jTRPA1 cells in the following text) were maintained under standard sterile cell culture conditions. The culture medium for the jTRPA1-HEK cells was DMEN (Gibco BRL, Invitrogen, Merelbeke, Belgium) supplemented with 5 g/l gengticin (Gibco), 5 mL/l blasticidin (Invitorgen), 14.6 g/l L-Glutamine (200 mMl; Gibco), 5 g/l penicillin/streptomycin (5.10-6 IU/I, Gibco), 5.5 g/l pyruvic acid (Gibco) and 10% foetal calf serum (Hyclone, Logan Utah, USA).
For Ca^2+ fluorometry experiments, hTRPA1-HEK cells were resuspended in HBSS seeding medium: HBSS (with CaCl2 and MgCl2: Gibco) supplemented with 14.6 g/l L-Glutamine (200 mM; Gibco), 5 g/l penicillin/streptomycin (5.10-6 IU/l. Gibco), 5.5 g/l pyruvic acid (Gibco) and 10% foetal calf serum (heat inactivated for 30 minutes at 56° C.; Hyclone, Logan Utah, USA). The cells were seeded in poly-D-lysine-coated 384-well round bottom polypropylene plates (Costar Corning, Data Packaging, Cambridge Mass., USA) at 12000 cells/well. Fifty ng/ml tetracycline was added to induce the hTRPA1 expression 24 h before the experiment.
The cells were loaded with 5 mg/l Fluo-4-AM (Molecular Probes, Invitorgen, Merelbeke, Belgium) dissolved in HBSS seeding medium supplemented with 0.7 g/l Probenecid (Sigma) and incubated for 1 h at 37° C. and subsequently at 20° C. for 1 to 2 h. The fluorescence was measured in the FDSS 6000 imaging based plate reader (Hamamutsu Photonics K.K., Hamamutsu City, Japan). The excitation wavelength was 488 nm and the emission wavelength 540 nm. After a control period of 12 seconds the inventive compounds were added and the Ca^2+ signal was measured within 14 minutes after application. Finally, a TRPA1 agonist, 6,11-dihydro-5H-dibenzo[b,e]azepine-10-carboxylic acid methyl ester, was added at a final concentration of 25 nM. The emission ratio was calculated by dividing the emission signal (Em540) by the first EM540 signal of the control period to compensate for the background fluorescence. […] For intracellular Ca^2+ measurements, a compound stock solution (10 to 100 mM) was further diluted in DMSO in order to obtain a final 1% DMSO concentration in the extracellular solution.

Human TRPA1, sequence (O75762 whole entry): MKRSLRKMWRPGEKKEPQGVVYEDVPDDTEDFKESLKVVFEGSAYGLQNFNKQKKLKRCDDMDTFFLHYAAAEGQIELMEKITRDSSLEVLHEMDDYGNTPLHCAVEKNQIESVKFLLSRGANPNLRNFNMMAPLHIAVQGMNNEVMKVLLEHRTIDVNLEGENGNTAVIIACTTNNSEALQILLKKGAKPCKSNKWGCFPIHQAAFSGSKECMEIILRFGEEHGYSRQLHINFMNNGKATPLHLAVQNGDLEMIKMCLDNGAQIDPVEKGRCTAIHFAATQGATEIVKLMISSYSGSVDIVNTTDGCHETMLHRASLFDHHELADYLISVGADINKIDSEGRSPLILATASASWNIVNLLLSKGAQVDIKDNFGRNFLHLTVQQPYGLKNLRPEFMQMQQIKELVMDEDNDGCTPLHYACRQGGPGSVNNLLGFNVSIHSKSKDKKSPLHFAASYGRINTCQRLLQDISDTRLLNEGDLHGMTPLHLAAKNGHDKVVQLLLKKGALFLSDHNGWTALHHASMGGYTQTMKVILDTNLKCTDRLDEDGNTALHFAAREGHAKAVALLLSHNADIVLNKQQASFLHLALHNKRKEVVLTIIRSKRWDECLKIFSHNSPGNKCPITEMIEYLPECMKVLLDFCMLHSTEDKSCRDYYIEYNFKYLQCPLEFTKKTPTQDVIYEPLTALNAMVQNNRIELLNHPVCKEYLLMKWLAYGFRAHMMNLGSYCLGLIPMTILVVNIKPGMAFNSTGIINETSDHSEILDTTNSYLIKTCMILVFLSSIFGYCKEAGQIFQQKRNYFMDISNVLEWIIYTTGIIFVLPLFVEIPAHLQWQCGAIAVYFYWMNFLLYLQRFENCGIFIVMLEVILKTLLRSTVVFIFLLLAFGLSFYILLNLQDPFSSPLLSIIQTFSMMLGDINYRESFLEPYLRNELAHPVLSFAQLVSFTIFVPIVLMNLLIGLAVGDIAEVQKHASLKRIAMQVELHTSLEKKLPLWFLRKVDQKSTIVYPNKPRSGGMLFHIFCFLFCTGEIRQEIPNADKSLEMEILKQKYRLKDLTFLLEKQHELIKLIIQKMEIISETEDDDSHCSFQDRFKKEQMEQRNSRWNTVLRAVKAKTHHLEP

First: N#Cc1ccc(-c2cc(CNC(=O)[C@@H]3CCCN3S(=O)(=O)c3ccc(F)cc3)nc(N3CCN(c4ccccc4F)CC3)n2)cc1 [Example 229, 1-(4-Fluoro-benzenesulfonyl)-pyrrolidine-2-carboxylic acid {6-(4-cyano-phenyl)-2-[4-(2-fluoro-phenyl)-piperazin-1-yl]-pyrimidin-4-ylmethyl}-amide]
Second: O=C(NCc1cc(-c2ccc(Cl)cc2)nc(N2CCN(c3ccccc3F)CC2)n1)[C@@H]1CCCN1S(=O)(=O)c1ccc(F)cc1 [Example 241, 1-(4-Fluoro-benzenesulfonyl)-pyrrolidine-2-carboxylic acid {6-(4-chloro-phenyl)-2-[4-(2-fluoro-phenyl)-piperazin-1-yl]-pyrimidin-4-ylmethyl}-amide]
The IC50 of the first is 3.8-fold higher: 1590 nM for the first, 417 nM for the second. The second is the more potent here.

Compared with COc1ccc(F)cc1-c1cc(CNC(=O)[C@@H]2CCCN2S(=O)(=O)c2ccc(F)cc2)nc(N2CCN(c3ccccc3F)CC2)n1 [Example 230, 1-(4-Fluoro-benzenesulfonyl)-pyrrolidine-2S-carboxylic acid {6-(5-fluoro-2-methoxy-phenyl)-2-[4-(2-fluoro-phenyl)-piperazin-1-yl]-pyrimidin-4-ylmethyl}-amide], O=C(NCc1cc(-c2ccc(F)cc2F)nc(N2CCN(c3ccccc3F)CC2)n1)[C@@H]1CCCN1S(=O)(=O)c1ccc(F)cc1 [Example 233, 1-(4-Fluoro-benzenesulfonyl)-pyrrolidine-2S-carboxylic acid {6-(2,4-difluoro-phenyl)-2-[4-(2-fluoro-phenyl)-piperazin-1-yl]-pyrimidin-4-ylmethyl}-amide] is 3.5-fold lower in IC50: 1290 nM for the first, roughly 372 nM for the second.

Cc1ccc(C)c(-c2cc(CNC(=O)[C@@H]3CCCN3S(=O)(=O)c3ccc(F)cc3)nc(N3CCN(c4ccccc4F)CC3)n2)c1 [Example 232, 1-(4-Fluoro-benzenesulfonyl)-pyrrolidine-2S-carboxylic acid {6-(2,5-dimethyl-phenyl)-2-[4-(2-fluoro-phenyl)-piperazin-1-yl]-pyrimidin-4-ylmethyl}-amide] and Cc1ccccc1-c1cc(CNC(=O)[C@@H]2CCCN2S(=O)(=O)c2ccc(F)cc2)nc(N2CCN(c3ccccc3F)CC2)n1 [Example 247, 1-(4-Fluoro-benzenesulfonyl)-pyrrolidine-2S-carboxylic acid {2-[4-(2-fluoro-phenyl)-piperazin-1-yl]-6-o-tolyl-pyrimidin-4-ylmethyl}-amide] are within 1.5-fold of each other in IC50: 1120 nM for the first, roughly 1440 nM for the second.

Going from O=C(NCc1cc(-c2cccc(OC(F)(F)F)c2)nc(N2CCN(c3ccccc3F)CC2)n1)[C@@H]1CCCN1S(=O)(=O)c1ccc(F)cc1 [Example 234, 1-(4-Fluoro-benzenesulfonyl)-pyrrolidine-2S-carboxylic acid [2-[4-(2-fluoro-phenyl)-piperazin-1-yl]-6-(3-trifluoromethoxy-phenyl)-pyrimidin-4-ylmethyl]-amide] to O=C(NCc1cc(-c2cccc(C(F)(F)F)c2)nc(N2CCN(c3ccccc3F)CC2)n1)[C@@H]1CCCN1S(=O)(=O)c1ccc(F)cc1 [Example 243, 1-(4-Fluoro-benzenesulfonyl)-pyrrolidine-2S-carboxylic acid [2-[4-(2-fluoro-phenyl)-piperazin-1-yl]-6-(3-trifluoromethyl-phenyl)-pyrimidin-4-ylmethyl]-amide], the IC50 falls from greater than 10000 nM to 3800 nM.

N#Cc1cccc(-c2cc(CNC(=O)[C@@H]3CCCN3S(=O)(=O)c3ccc(F)cc3)nc(N3CCN(c4ccccc4F)CC3)n2)c1 [Example 235, 1-(4-Fluoro-benzenesulfonyl)-pyrrolidine-2S-carboxylic acid {6-(3-cyano-phenyl)-2-[4-(2-fluoro-phenyl)-piperazin-1-yl]-pyrimidin-4-ylmethyl}-amide] and O=C(NCc1cc(-c2cccc(Cl)c2)nc(N2CCN(c3ccccc3F)CC2)n1)[C@@H]1CCCN1S(=O)(=O)c1ccc(F)cc1 [Example 239, 1-(4-Fluoro-benzenesulfonyl)-pyrrolidine-2S-carboxylic acid {6-(3-chloro-phenyl)-2-[4-(2-fluoro-phenyl)-piperazin-1-yl]-pyrimidin-4-ylmethyl}-amide] are within 1.5-fold of each other in IC50: 5890 nM for the first, 5010 nM for the second.

Compared with Cc1cc(C)cc(-c2cc(CNC(=O)[C@@H]3CCCN3S(=O)(=O)c3ccc(F)cc3)nc(N3CCN(c4ccccc4F)CC3)n2)c1 [Example 236, 1-(4-Fluoro-benzenesulfonyl)-pyrrolidine-2S-carboxylic acid {6-(3,5-dimethyl-phenyl)-2-[4-(2-fluoro-phenyl)-piperazin-1-yl]-pyrimidin-4-ylmethyl}-amide], O=C(NCc1cc(-c2cc(F)cc(F)c2)nc(N2CCN(c3ccccc3F)CC2)n1)[C@@H]1CCCN1S(=O)(=O)c1ccc(F)cc1 [Example 249, 1-(4-Fluoro-benzenesulfonyl)-pyrrolidine-2S-carboxylic acid {6-(3,5-difluoro-phenyl)-2-[4-(2-fluoro-phenyl)-piperazin-1-yl]-pyrimidin-4-ylmethyl}-amide] is lower in IC50: greater than 10000 nM for the first, 1590 nM for the second.

First: CN(C)c1cccc(-c2cc(CNC(=O)[C@@H]3CCCN3S(=O)(=O)c3ccc(F)cc3)nc(N3CCN(c4ccccc4F)CC3)n2)c1 [Example 237, 1-(4-Fluoro-benzenesulfonyl)-pyrrolidine-2S-carboxylic acid {6-(3-dimethylamino-phenyl)-2-[4-(2-fluoro-phenyl)-piperazin-1-yl]-pyrimidin-4-ylmethyl}-amide]
Second: O=C(NCc1cc(-c2cccc(F)c2)nc(N2CCN(c3ccccc3F)CC2)n1)[C@@H]1CCCN1S(=O)(=O)c1ccc(F)cc1 [Example 246, 1-(4-Fluoro-benzenesulfonyl)-pyrrolidine-2S-carboxylic acid {6-(3-fluoro-phenyl)-2-[4-(2-fluoro-phenyl)-piperazin-1-yl]-pyrimidin-4-ylmethyl}-amide]
The IC50 of the first is higher: greater than 10000 nM for the first, 2000 nM for the second. The second is the more potent here.

Compared with O=C(NCc1cc(-c2ccc3c(c2)OCO3)nc(N2CCN(c3ccccc3F)CC2)n1)[C@@H]1CCCN1S(=O)(=O)c1ccc(F)cc1 [Example 238, 1-(4-Fluoro-benzenesulfonyl)-pyrrolidine-2S-carboxylic acid {6-benzo[1,3]dioxol-5-yl-2-[4-(2-fluoro-phenyl)-piperazin-1-yl]-pyrimidin-4-ylmethyl}-amide], O=C(NCc1cc(-c2ccc(F)c(Cl)c2)nc(N2CCN(c3ccccc3F)CC2)n1)[C@@H]1CCCN1S(=O)(=O)c1ccc(F)cc1 [Example 244, 1-(4-Fluoro-benzenesulfonyl)-pyrrolidine-2-carboxylic acid {6-(3-chloro-4-fluoro-phenyl)-2-[4-(2-fluoro-phenyl)-piperazin-1-yl]-pyrimidin-4-ylmethyl}-amide] is higher in IC50: 1290 nM for the first, greater than 10000 nM for the second.

Cc1cccc(C)c1-c1cc(CNC(=O)[C@@H]2CCCN2S(=O)(=O)c2ccc(F)cc2)nc(N2CCN(c3ccccc3F)CC2)n1 [Example 240, 1-(4-Fluoro-benzenesulfonyl)-pyrrolidine-2S-carboxylic acid {6-(2,6-dimethyl-phenyl)-2-[4-(2-fluoro-phenyl)-piperazin-1-yl]-pyrimidin-4-ylmethyl}-amide] and O=C(NCc1cc(-c2ccccc2Cl)nc(N2CCN(c3ccccc3F)CC2)n1)[C@@H]1CCCN1S(=O)(=O)c1ccc(F)cc1 [Example 242, 1-(4-Fluoro-benzenesulfonyl)-pyrrolidine-2-carboxylic acid {6-(2-chloro-phenyl)-2-[4-(2-fluoro-phenyl)-piperazin-1-yl]-pyrimidin-4-ylmethyl}-amide] are within 1.5-fold of each other in IC50: roughly 933 nM for the first, roughly 1100 nM for the second.

Compared with O=C(NCc1cc(-c2ccccc2F)nc(N2CCN(c3ccccc3F)CC2)n1)[C@@H]1CCCN1S(=O)(=O)c1ccc(F)cc1 [Example 245, 1-(4-Fluoro-benzenesulfonyl)-pyrrolidine-2S-carboxylic acid {6-(2-fluoro-phenyl)-2-[4-(2-fluoro-phenyl)-piperazin-1-yl]-pyrimidin-4-ylmethyl}-amide], O=C(NCc1cc(-c2ccc(Cl)c(Cl)c2)nc(N2CCN(c3ccccc3F)CC2)n1)[C@@H]1CCCN1S(=O)(=O)c1ccc(F)cc1 [Example 248, 1-(4-Fluoro-benzenesulfonyl)-pyrrolidine-2S-carboxylic acid {6-(3,4-dichloro-phenyl)-2-[4-(2-fluoro-phenyl)-piperazin-1-yl]-pyrimidin-4-ylmethyl}-amide] is 3.6-fold lower in IC50: 2460 nM for the first, roughly 676 nM for the second. The second is the more potent here.
